Common to all, as to assay type: biochemical
The target of assay [1] is T1, BTK (Homo sapiens, UniProt Q06187).
T1 construct: purified from insect cells as a full-length construct containing a N-terminal 6×-His tag; His6 (N); made in house; host or cells: insect cells (baculovirus, Sf21)
Nature of the assay: Btk in vitro inhibitory activity (TR-FRET, mobility shift or radiometric filter binding kinase assay). As to conditions: determined using one of the methods outlined in Example 47a, 47b, and 47c. As to the method: (§1) Btk kinase activity is determined using a time-resolved fluorescence resonance energy transfer (TR-FRET) methodology. Measurements are performed in a reaction volume of 50 μL using 96-well assay plates. […] The reaction is quenched by the addition of 1.2 equivalents of EDTA (relative to divalent cation) in 25 μL of 1× Lance buffer (Perkin-Elmer). Streptavidin-APC (Perkin-Elmer) and Eu-labeled p-Tyr100 antibody (Perkin-Elmer) in 1× Lance buffer are added in a 25 μL volume to give final concentrations of 100 nM and 2.5 nM, respectively, and the mixture is allowed to incubate for one hour. The TR-FRET signal is measured on a multimode plate reader with an excitation wavelength (λEx) of 330 nm and detection wavelengths (λEm) of 615 and 665 nm. Activity is determined by the ratio of the fluorescence at 665 nm to that at 615 nm. For each compound, enzyme activity is measured at various concentrations of compound. Negative control reactions are performed in the absence of inhibitor in replicates of six, and two no-enzyme controls are used to determine baseline fluorescence levels. Inhibition constants, Ki(app), ware obtained using the program BatchKi (Kuzmic et al. (2000), Anal. Biochem. 286:45-50). IC50s are obtained according to the equation: IC50={Ki(app)/(1+[ATP]/Km^ATP)}+[E]total/2;
(§2) For all kinases, [ATP]=Km^ATP, [Btk]total=0.5 nM and [Lck]total=6 nM.
Kinase activity is measured in vitro using electrophoretic mobility shift assay. The kinase reactions are assembled in a total volume of 25 μL in 384 well plates. […] The reaction is incubated for one hour and is quenched by the addition of 45 μL of termination buffer (100 mM HEPES, pH7.5, 0.01% Triton X-100, 30 mM EDTA). The terminated reactions are analyzed using 12 channel LabChip® 3000 microfluidic detection instrument (Caliper Life Sciences). The enzymatic phosphorylation of the peptide results in a change in net charge, enabling electrophoretic separation of product from substrate peptide. As substrate and product peptides are separated, two peaks of fluorescence are observed. Change in the relative fluorescence intensity of the substrate and product peaks is the parameter measured, reflecting enzyme activity. In the presence of an inhibitor, the ratio between product and substrate is altered: the signal of the product decreases, while the signal of the substrate increases.
Activity in each sample is determined as the product to sum ratio (PSR): P/(S+P), where P is the peak height of the product peptide and S is the peak height of the substrate peptide. For each compound, enzyme activity is measured at various concentrations (12 concentrations of compound spaced by 3× dilution intervals). Negative control samples (0%-inhibition in the absence of inhibitor) and positive control samples (100%-inhibition, in the presence of 20 mM EDTA) are assembled in replicates of four and are used to calculate %-inhibition values for each inhibitor at each concentration. Percent inhibition (Pinh) is determined using following equation: Pinh=(PSR0%−PSRinh)/(PSR0%−PSR100%)*100,
where PSRmh is the product sum ratio in the presence of inhibitor, PSR0% is the average product sum ration in the absence of inhibitor and PSR100% is the average product sum ratio in 100%-inhibition control samples;
The IC50 values of inhibitors are determined by 4 parameter sigmoidal dose-response model fitting of the inhibition curves (Pinh versus inhibitor concentration) using XLfit 4 software.
Human Btk kinase (Genbank accession # NP_000052) was purified from insect cells as a full-length construct containing a N-terminal 6×-His tag. Btk kinase activity was determined using a radiometric filter binding assay. Measurements are performed in a low μL reaction volume 384-well assay plates. […]
A general note: In TR-FRET formats the signal depends on donor and acceptor labels being close together.

Assay [2] deals with EGFR (Homo sapiens, UniProt P00533). Nature of the assay: EGFR kinase inhibition (in vitro kinase assay).
The target of assay [3] is Lck (Homo sapiens, UniProt P06239). Nature of the assay: Lck kinase inhibition (in vitro kinase assay). How it is done:
as §1, §2

Assay [4] concerns the target T2, Jak3 (Homo sapiens, UniProt P52333).
T2 sequence (P52333 1-1124): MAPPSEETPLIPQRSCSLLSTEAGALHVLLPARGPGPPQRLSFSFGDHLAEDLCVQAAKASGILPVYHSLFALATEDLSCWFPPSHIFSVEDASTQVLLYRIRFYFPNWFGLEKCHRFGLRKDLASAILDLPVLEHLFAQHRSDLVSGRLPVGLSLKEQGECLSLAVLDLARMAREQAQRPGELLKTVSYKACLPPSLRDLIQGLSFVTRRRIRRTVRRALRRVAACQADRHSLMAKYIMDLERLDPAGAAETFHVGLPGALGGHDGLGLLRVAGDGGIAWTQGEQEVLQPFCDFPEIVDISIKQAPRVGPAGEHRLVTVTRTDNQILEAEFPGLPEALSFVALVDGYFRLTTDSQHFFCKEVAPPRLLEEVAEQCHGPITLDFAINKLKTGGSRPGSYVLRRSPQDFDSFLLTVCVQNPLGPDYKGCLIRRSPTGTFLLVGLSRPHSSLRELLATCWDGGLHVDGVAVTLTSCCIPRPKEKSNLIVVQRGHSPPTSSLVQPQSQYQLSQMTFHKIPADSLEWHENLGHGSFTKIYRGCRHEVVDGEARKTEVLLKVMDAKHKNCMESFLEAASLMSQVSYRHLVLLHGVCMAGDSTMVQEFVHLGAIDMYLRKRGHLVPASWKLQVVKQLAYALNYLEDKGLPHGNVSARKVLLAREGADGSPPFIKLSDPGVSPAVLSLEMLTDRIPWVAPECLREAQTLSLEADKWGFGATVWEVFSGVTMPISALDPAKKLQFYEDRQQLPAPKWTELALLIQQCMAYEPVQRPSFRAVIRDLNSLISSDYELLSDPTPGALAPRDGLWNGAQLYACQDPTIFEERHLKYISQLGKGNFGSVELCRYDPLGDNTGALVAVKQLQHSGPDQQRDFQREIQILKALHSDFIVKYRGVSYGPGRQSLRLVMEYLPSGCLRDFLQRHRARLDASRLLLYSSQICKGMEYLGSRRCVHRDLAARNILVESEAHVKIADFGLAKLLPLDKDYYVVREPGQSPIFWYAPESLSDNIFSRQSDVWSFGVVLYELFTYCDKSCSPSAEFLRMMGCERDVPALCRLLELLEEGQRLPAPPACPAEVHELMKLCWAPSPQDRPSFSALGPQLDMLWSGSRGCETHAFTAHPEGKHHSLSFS
Nature of the assay: Jak3 kinase inhibition (in vitro kinase assay).

SMILES strings stand for the structures.

Chain of EGFR (P00533 25-1210, species assumed): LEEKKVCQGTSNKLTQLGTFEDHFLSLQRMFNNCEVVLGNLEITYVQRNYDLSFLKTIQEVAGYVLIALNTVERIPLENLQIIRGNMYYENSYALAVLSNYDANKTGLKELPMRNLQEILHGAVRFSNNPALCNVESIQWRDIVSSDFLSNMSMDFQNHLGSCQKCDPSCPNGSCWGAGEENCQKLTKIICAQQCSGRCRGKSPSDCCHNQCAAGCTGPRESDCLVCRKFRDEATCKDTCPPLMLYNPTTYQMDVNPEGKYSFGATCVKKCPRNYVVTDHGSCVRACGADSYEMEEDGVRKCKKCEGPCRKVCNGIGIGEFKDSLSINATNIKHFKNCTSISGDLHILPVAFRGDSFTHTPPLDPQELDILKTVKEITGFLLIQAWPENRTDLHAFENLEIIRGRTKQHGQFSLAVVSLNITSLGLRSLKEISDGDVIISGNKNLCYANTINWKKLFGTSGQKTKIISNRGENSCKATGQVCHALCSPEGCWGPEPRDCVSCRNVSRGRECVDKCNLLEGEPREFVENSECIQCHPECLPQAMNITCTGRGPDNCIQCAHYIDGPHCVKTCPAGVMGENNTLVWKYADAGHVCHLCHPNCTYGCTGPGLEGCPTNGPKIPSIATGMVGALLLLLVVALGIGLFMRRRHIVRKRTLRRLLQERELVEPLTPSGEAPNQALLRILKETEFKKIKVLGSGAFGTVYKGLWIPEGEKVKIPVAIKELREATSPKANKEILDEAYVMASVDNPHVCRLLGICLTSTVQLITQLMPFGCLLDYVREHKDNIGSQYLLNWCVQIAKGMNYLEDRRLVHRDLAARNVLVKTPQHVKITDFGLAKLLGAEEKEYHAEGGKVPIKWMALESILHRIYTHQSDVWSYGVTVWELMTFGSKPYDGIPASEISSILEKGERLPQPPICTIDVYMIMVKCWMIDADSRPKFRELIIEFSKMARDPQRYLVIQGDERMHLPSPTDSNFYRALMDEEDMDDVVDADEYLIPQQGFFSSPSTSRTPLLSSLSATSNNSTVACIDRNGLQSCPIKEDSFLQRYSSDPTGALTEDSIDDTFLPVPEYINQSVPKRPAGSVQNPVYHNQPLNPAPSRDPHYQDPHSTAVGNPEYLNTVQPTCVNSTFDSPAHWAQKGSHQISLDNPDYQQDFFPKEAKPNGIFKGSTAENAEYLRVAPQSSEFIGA
T1 sequence (Q06187 whole entry): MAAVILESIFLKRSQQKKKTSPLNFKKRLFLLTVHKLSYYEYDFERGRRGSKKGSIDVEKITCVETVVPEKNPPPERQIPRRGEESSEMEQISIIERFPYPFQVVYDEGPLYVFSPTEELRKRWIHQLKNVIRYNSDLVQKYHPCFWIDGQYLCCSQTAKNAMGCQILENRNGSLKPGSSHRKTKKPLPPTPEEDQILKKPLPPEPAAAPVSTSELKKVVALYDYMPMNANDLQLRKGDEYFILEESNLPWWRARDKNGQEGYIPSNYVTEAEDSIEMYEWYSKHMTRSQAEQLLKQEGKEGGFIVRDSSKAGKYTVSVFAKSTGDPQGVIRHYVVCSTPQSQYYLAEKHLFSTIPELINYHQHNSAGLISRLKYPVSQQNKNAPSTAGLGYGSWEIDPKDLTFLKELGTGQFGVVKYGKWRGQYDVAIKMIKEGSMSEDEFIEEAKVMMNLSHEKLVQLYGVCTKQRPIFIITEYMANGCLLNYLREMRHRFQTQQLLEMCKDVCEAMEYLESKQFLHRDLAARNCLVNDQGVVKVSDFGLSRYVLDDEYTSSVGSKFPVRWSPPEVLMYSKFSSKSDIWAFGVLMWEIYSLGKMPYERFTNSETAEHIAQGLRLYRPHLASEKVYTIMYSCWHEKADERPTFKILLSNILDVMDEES
Chain of Lck (P06239 whole entry, species assumed): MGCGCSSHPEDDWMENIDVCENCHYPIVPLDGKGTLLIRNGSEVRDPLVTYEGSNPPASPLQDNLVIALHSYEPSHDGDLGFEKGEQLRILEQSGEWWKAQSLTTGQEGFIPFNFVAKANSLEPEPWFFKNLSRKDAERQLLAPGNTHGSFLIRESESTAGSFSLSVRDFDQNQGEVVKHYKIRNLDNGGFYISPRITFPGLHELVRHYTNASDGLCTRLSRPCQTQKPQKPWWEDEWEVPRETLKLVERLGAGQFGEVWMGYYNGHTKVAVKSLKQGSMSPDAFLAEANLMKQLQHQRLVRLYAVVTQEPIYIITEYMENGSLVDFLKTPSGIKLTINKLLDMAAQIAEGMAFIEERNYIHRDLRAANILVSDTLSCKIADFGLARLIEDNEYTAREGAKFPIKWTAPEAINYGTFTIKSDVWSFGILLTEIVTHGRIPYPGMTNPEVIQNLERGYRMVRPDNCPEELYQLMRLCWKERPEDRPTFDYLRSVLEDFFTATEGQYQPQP

On to `CN(C/C=C/C(=O)N1CC[C@@H](n2nc(-c3ccc(C(=O)Nc4ncc(C5CC5)s4)cc3)c3c(N)ncnc32)C1)C1CC1` [Example 7, (R,E)-4-(4-amino-1-(1-(4-(cyclopropyl(methyl)amino)but-2-enoyl)pyrrolidin-3-yl)-1H-pyrazolo[3,4-d]pyrimidin-3-yl)-N-(5-cyclopropylthiazol-2-yl)benzamide], for which the IC50 (as a rule, the concentration needed to halve the response being measured) in assay [1] is less than 100 nM; in assay [2], less than 1 nM; in assay [3] it was less than 1 nM; in assay [4], less than 1 nM.
Consider `CN(C/C=C/C(=O)N1CC[C@@H](n2nc(-c3ccc(C(=O)Nc4ncc(C#N)s4)cc3)c3c(N)ncnc32)C1)C1CC1` [Example 12, (R,E)-4-(4-amino-1-(1-(4-(cyclopropyl(methyl)amino)but-2-enoyl)pyrrolidin-3-yl)-1H-pyrazolo[3,4-d]pyrimidin-3-yl)-N-(5-cyanothiazol-2-yl)benzamide], for which the IC50 was less than 100 nM in assay [1], less than 100 nM in assay [2], less than 100 nM in assay [3] and less than 1 nM in assay [4].
Regarding `CN(C/C=C/C(=O)N1CC[C@@H](n2nc(-c3ccc(C(=O)Nc4nccs4)cc3)c3c(N)ncnc32)C1)C1CC1` [Example 13, (R,E)-4-(4-amino-1-(1-(4-(cyclopropyl(methyl)amino)but-2-enoyl)pyrrolidin-3-yl)-1H-pyrazolo[3,4-d]pyrimidin-3-yl)-N-(thiazol-2-yl)benzamide], the IC50 in assay [1] is less than 100 nM; in assay [2], less than 1 nM; in assay [3], less than 100 nM; in assay [4], less than 100 nM.
Take `CN(C/C=C/C(=O)N1CC[C@@H](n2nc(-c3ccc(C(=O)Nc4cc(C#N)ccn4)cc3)c3c(N)ncnc32)C1)C1CC1` [Example 16, (R,E)-4-(4-amino-1-(1-(4-(cyclopropyl(methyl)amino)but-2-enoyl)pyrrolidin-3-yl)-1H-pyrazolo[3,4-d]pyrimidin-3-yl)-N-(4-cyanopyridin-2-yl)benzamide]: the IC50 was less than 100 nM in assay [1], 1000 to 10000 nM in assay [2] and 100 to 1000 nM in assay [3].
The matching figures for `CN(C/C=C/C(=O)N1CC[C@@H](n2nc(-c3ccc(C(=O)Nc4cc(C5CC5)ccn4)cc3)c3c(N)ncnc32)C1)C1CC1` [Example 17, (R,E)-4-(4-amino-1-(1-(4-(cyclopropyl(methyl)amino)but-2-enoyl)pyrrolidin-3-yl)-1H-pyrazolo[3,4-d]pyrimidin-3-yl)-N-(4-cyclopropylpyridin-2-yl)benzamide]: less than 1 nM, 1000 to 10000 nM and 100 to 1000 nM.
`CC(C)c1ccnc(NC(=O)c2ccc(-c3nn([C@@H]4CCN(C(=O)/C=C/CN(C)C5CC5)C4)c4ncnc(N)c34)cc2)c1` [Example 18, (R,E)-4-(4-amino-1-(1-(4-(cyclopropyl(methyl)amino)but-2-enoyl)pyrrolidin-3-yl)-1H-pyrazolo[3,4-d]pyrimidin-3-yl)-N-(4-isopropylpyridin-2-yl)benzamide]: the IC50 in assay [1] is less than 1 nM; in assay [2] it was 1000 to 10000 nM; in assay [3] it was 100 to 1000 nM.
With `CC#CC(=O)N[C@H]1CC[C@H](n2nc(-c3ccc(C(=O)Nc4cc(C(F)(F)F)ccn4)cc3)c3c(N)ncnc32)CC1` [Example 19, 4-(4-amino-1-((1,4-trans)-4-but-2-ynamidocyclohexyl)-1H-pyrazolo[3,4-d]pyrimidin-3-yl)-N-(4-(trifluoromethyl)pyridin-2-yl)benzamide], the IC50 in assay [1] is less than 1 nM; in assay [2], 100 to 1000 nM; in assay [3], less than 100 nM; in assay [4] it was more than 10000 nM.
`C=CC(=O)N[C@H]1CC[C@H](n2nc(-c3ccc(C(=O)Nc4cc(C)ccn4)cc3)c3c(N)ncnc32)CC1` [Example 27, 4-(1-((1,4-trans)-4-acrylamidocyclohexyl)-4-amino-1H-pyrazolo[3,4-d]pyrimidin-3-yl)-N-(4-methylpyridin-2-yl)benzamide]: the IC50 in assay [1] is less than 1 nM; in assay [3] it was more than 10000 nM; in assay [4] it was more than 10000 nM.
`CN(C)C/C=C/C(=O)N1CC[C@@H](n2nc(-c3ccc(C(=O)Nc4ccccn4)cc3)c3c(N)ncnc32)C1` [Example 30, (R,E)-4-(4-amino-1-(1-(4-(dimethylamino)but-2-enoyl)pyrrolidin-3-yl)-1H-pyrazolo[3,4-d]pyrimidin-3-yl)-N-(pyridin-2-yl)benzamide]: the 50% inhibitory concentration (IC50) was less than 1 nM in assay [1], 100 to 1000 nM in assay [2] and 100 to 1000 nM in assay [3].
As for `CC(C)c1ccnc(NC(=O)c2ccc(-c3nn([C@@H]4CCN(C(=O)/C=C/CN(C)C)C4)c4ncnc(N)c34)cc2)c1` [Example 31, (R,E)-4-(4-amino-1-(1-(4-(dimethylamino)but-2-enoyl)pyrrolidin-3-yl)-1H-pyrazolo[3,4-d]pyrimidin-3-yl)-N-(4-isopropylpyridin-2-yl)benzamide], the IC50 in assay [1] was less than 1 nM; in assay [2], 100 to 1000 nM; in assay [3] it was less than 100 nM.
Turning to `CN(C)C/C=C/C(=O)N1CC[C@@H](n2nc(-c3ccc(C(=O)Nc4cc(C#N)ccn4)cc3)c3c(N)ncnc32)C1` [Example 32, (R,E)-4-(4-amino-1-(1-(4-(dimethylamino)but-2-enoyl)pyrrolidin-3-yl)-1H-pyrazolo[3,4-d]pyrimidin-3-yl)-N-(4-cyanopyridin-2-yl)benzamide], the IC50 was less than 1 nM in assay [1], 100 to 1000 nM in assay [2] and 100 to 1000 nM in assay [3].

Source of the values: patent US9624224B2, “Inhibitors of Bruton's tyrosine kinase” (Pharmacyclics LLC, priority 2013, dated 2017).
